The values that follow come from PMC6656724 (Communications Biology, 2019).

The structures appear in SMILES notation. “Also recorded” adds a separate entry of the source.

In assay [1] the target is T1, PfKMO (Pseudomonas fluorescens, UniProt Q84HF5, C252S/C461S).
T1 construct: made in house; host or cells: E. coli BL21 (DE3)
Kind of assay: biochemical. On the procedure: saturating concentrations of the L-KYN and NADPH substrates. Data are plotted […]
consumption of NADPH at 340 nm upon addition of enzyme via a Cary 50 UV-Vis spectrophotometer (Agilent Technologies). Rates were determined from linear regression fits to the initial linear portion of the curves. All measurements were performed in triplicate. The IC50 values for inhibitors were obtained by plotting the percentage inhibition versus the inhibitor concentration and fitting to the Morrison equation16 (equation 1) using Origin 9.0 Software (OriginLab, Northampton, MA).
E + I + K!"" − E + I + K!"" ! − 4[E][I] where v0 is the enzyme activity without inhibitor, vi is the enzyme activity with ligand concentration [I], [E] is the enzyme concentration, [I] is the inhibitor concentration, K!"" is the apparent inhibition constant and IC = K!"" + [!] . If K!"" ≫ [!], IC ≈ […]
where Ki is the inhibition constant, [S] is the substrate concentration used in the assay and Km is the Michaelis-Menten constant17. […]
between Ki and Ki apparent values, as the conditions for measuring IC50 are different, Ki values can be used to compare with other reported KMO inhibitors.
Steady-state kinetic parameters for PfKMO were calculated by measuring initial rates […]
the observed rate of turnover (v) versus the varied substrate concentration were fitted to equation 2 using Origin 9.0 Software (OriginLab, Northampton, MA).
A B + K!! B + K!! A + K!!K!! where v is the initial rate of activity, Vmax is the maximum velocitie of the reaction, [A] and [B] are the substrate concentration, K!! and K!! are the Michaelis-Menten constant for different substrate and K!! is the inhibition (binding) constant of substrate A to the free enzyme while forming transitory complexes.18
Product inhibition studies were carried out by measuring reaction rates at varying […]
one substrate and varying concentrations of the other substrate. Inhibition studies with target compounds were carried out by measuring reaction rates at varying inhibitor concentrations at saturating concentrations of one substrate and varying concentrations of the other substrate. […]
were used to distinguish between different types of inhibition. The data were fitted to a straight line defined by the Lineweaver-Burke equation (equation 4), with the y intercept providing 1/Vmax and the x intercept giving -1/Km. […]

Assay [2] has as its target T1, PfKMO. Kind of assay: Stopped-flow reduction of flavin cofactor by NADPH. The settings on record: for Reduction rate of flavin cofactor: PfKMO with saturating ligand, 2 mM NADPH, 25 °C, anaerobic. Format: biochemical. On the procedure: The reduction rate of the flavin cofactor by NADPH was measured using a stopped-flow spectrophotometer (Applied Photophysics Ltd), which was housed in an anaerobic glovebox (Belle Technology). […] The reduction of the flavin was monitored by the decrease in the absorbance of the flavin at 450 nm and transients were fitted to either double or triple exponentials.
Supplementary Figure 13. Reduction of flavin cofactor by NADPH in the presence and absence of ligands. Anaerobic mixtures of 10 µM PfKMO with or without ligand were mixed against anaerobic 2 mM NADPH on a stopped-flow spectrophotometer at 25℃. a, 10 µM PfKMO mixed with 2 mM NADPH; b, 10 µM

The test system of a further assay is K562 cells. Kind of assay: Competition assay for uptake of riboflavin. Format: cell-based, Human. On the set-up: key to Mean FL2-A, compound only: relative fluorescence units. The settings on record: for Mean FL2-A, compound + riboflavin (RF): 1 µM riboflavin plus 100 µM compound; for Inhibition of riboflavin uptake: 1 µM riboflavin; for Inhibition of riboflavin uptake / Mean FL2-A, compound only: compound 100 µM. On the procedure:
Riboflavin transporters are equilibrative rather than concentrative, and the uptake of the inhibitors would be hard to measure directly. To assess whether the KMO inhibitors were substrates for riboflavin transporters, we assessed their ability to compete with riboflavin for uptake into cells. Riboflavin is intensely fluorescent, and is taken up in human cells by three main transporters SLC52A1, SLC52A2 and SLC52A3[28]. […] Consequently, we incubated cells with 1 μM riboflavin in the absence and presence of the various KMO inhibitors. There was a background fluorescence of some 100 relative fluorescence units. […] The data are summarised in Fig. 3c, and are consistent with the view that at least some of the KMO inhibitor uptake is likely to go via riboflavin transporters.
Supplementary Figure 15. A. Uptake of riboflavin into K562 cells. K562 cells were suspended in Dulbecco's phosphate-buffered saline (DPBS) supplemented with 5 mM glucose + 1 % fetal bovine serum (FBS) at a density of 0.5 x 10^6 cells/mL.
Compounds were added to Eppendorf tubes and DMSO removed through drying (vacuum centrifuge). Riboflavin was present at 1 µM and inhibitor 1 or prodrugs at 100 µM. 500 µL cells were added to Eppendorf tubes (containing the compound(s) of interest) and fluorescence measured immediately (excitation 488 nm, emission 525 ± 25nm) in a SONY SH800 flow cytometer over 300 s. Cells were maintained at 37 ℃ throughout in a water bath. Each symbol is the mean fluorescence of ~30 cells observed over a period of 1s. Purple, 1 µM riboflavin only; Red, 100 µM compound only; Blue, 1 µM riboflavin plus 100 µM compound; Green, no additions (control).
Note that the external concentration of riboflavin was rather critical, as the riboflavin transporters also catalyse exchange reactions with their various substrates. B.
Structures of KMO inhibitors and prodrugs and riboflavin, and their maximum common substructures (shown as a blue oval on 1). C. Gating strategy employed in this assay. Gate applied to K562 cell population is marked with a black line. SSC, side scatter, FSC, Forward scatter.
(1 picture or pasted object on this page, not shown here)

As a reminder, the Ki is the equilibrium dissociation constant of an inhibitor or competing ligand from its target.

T1 sequence (Q84HF5 whole entry C252S/C461S): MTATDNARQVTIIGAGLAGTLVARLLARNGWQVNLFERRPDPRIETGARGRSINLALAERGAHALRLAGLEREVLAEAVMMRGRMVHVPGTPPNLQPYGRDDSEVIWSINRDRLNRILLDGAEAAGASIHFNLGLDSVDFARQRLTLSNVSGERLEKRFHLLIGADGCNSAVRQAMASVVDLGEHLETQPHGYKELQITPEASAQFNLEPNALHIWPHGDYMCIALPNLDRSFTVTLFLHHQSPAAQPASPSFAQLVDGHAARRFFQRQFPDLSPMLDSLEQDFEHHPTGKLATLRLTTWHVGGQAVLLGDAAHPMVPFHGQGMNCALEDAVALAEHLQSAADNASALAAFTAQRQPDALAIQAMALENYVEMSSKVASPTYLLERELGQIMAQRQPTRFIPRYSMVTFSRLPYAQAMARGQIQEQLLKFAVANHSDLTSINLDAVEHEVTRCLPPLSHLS

In the case of `Cc1cc2c(c(C)c1Cl)N(CC(=O)O)C(=O)CO2` [compound 1, (6-chloro-5,7-dimethyl-3-oxo-2,3-dihydro-4H-1,4-benzoxazin-4-yl) acetic acid], at PfKMO [1] (PfKMO), the “Mechanism of inhibition with respect to L-KYN” value is reported as “competitive inhibitor”. At PfKMO [1] (PfKMO), the “Mechanism of inhibition with respect to NADPH” value is given as “mixed type inhibitors”. Further, on PfKMO [2], the “Reduction rate of flavin cofactor” value was determined as 0.13 ± 0.005 s⁻¹. The “Stimulation of KMO reduction by NADPH” value on PfKMO [2] (rapid mixing stopped-flow assays) was “do not stimulate”. In addition, the “Mean FL2-A, compound + riboflavin (RF)” value in the assay on K562 cells (time 1) is 57.8501; in the assay on K562 cells (time 2), 68.195; in the assay with K562 cells (time 3), 76.5831. For the same compound, the “Inhibition of riboflavin uptake” value in the assay on K562 cells is given as “inhibit riboflavin uptake”. In addition, the “Mean FL2-A, compound only” value in the assay on K562 cells (time 1) is given as 58.5977; with K562 cells (time 2), 60.0072; in the assay with K562 cells (time 3), 67.7034.

`COC(=O)CN1C(=O)COc2cc(C)c(Cl)c(C)c21` [1a]: the “Mean FL2-A, compound + riboflavin (RF)” value with K562 cells (time 1) was 66.6886; with K562 cells (time 2) it was 77.0559; in the assay on K562 cells (time 3) it was 76.3441. For the same compound, in the assay with K562 cells, the “Inhibition of riboflavin uptake” value was “inhibit riboflavin uptake”. Moreover, the “Mean FL2-A, compound only” value in the assay on K562 cells (time 1) was found to be 62.8068; with K562 cells (time 2) it was 65.3939; with K562 cells (time 3) it was 65.9534.

With `CCOC(=O)CN1C(=O)COc2cc(C)c(Cl)c(C)c21` [1b], the “Mean FL2-A, compound + riboflavin (RF)” value came out at 68.4214 in the assay with K562 cells (time 1), 59.9856 in the assay on K562 cells (time 2) and 60.5407 with K562 cells (time 3). Besides, in the assay with K562 cells, the “Inhibition of riboflavin uptake” value is recorded as “inhibit riboflavin uptake; also recorded: higher inhibition”. Further, the “Mean FL2-A, compound only” value in the assay on K562 cells (time 1) is reported as 59.4089; with K562 cells (time 2) it was 74.4694; in the assay with K562 cells (time 3) it was 63.9701.

Turning to `Cc1cc2c(c(C)c1Cl)N(CC(=O)OC(C)C)C(=O)CO2` [1c], the “Mean FL2-A, compound + riboflavin (RF)” value in the assay with K562 cells (time 1) was 59.0947; with K562 cells (time 2), 60.924; in the assay on K562 cells (time 3), 73.4972. For the same compound, the “Inhibition of riboflavin uptake” value in the assay with K562 cells is reported as “inhibit riboflavin uptake”. For the same compound, the “Mean FL2-A, compound only” value in the assay on K562 cells (time 1) is given as 60.7763; in the assay on K562 cells (time 2) it was 66.3048; in the assay with K562 cells (time 3), 65.3995.

On PfKMO [1], `Cc1cc2c(c(C)c1Cl)N(Cc1nn[nH]n1)C(=O)CO2` [1h, 6-chloro-5,7-dimethyl-4-(2H-tetrazol-5-ylmethyl)-1,4-benzoxazin-3-one] came in with a Ki of 1060 ± 40 nM. Further, on PfKMO [2], the “Reduction rate of flavin cofactor” value was determined as 0.09 ± 0.001 s⁻¹.
